From US11015223B2, “Methods for determining response to a hypomethylating agent” (THE REGENTS OF THE UNIVERSITY OF CALIFORNIA, priority 2013, dated 2021)

System: MDS patients
Assay: Response to treatment by IWG response criteria revised in 2006 (CR/PR/HI = responders)
Format: in vivo, human
Excerpt: A total of 213 MDS patients treated azacitidine or decitabine were included in this study. Samples were obtained from patients treated at the Dana-Farber Cancer Institute (n=42), the MD Anderson Cancer Center (n=104), and as part of the DACO-020 (ADOPT) clinical trial of decitabine (n=67). All samples were collected with patient consent under IRB-approved protocols in accordance with the Declaration of Helsinki. There were no significant differences in baseline patient characteristics by treatment site (Table 1).
Response to treatment was assessed using IWG response criteria revised in 2006. Patients with either a complete response (CR), partial response (PR), or hematologic improvement (HI) were considered as ‘responders’ (R, n=100, 47%). whereas patients described as having ‘no response’, ‘stable disease’, ‘progressive disease’, ‘death’ before response assessment, or ‘not evaluable’ were considered ‘non-responders’ (NR, […], 53%).
Categorical variables were compared using a Fisher exact test, while continuous variables were compared using a Wilcoxon rank-sum test. A Cochran-Mantel-Haenszel (CMH) test was used to test for differences in response rate by mutational status controlling for treatment. Unadjusted and adjusted logistic regression models were used to predict response to therapy. A stepwise algorithm for logistic regression was also utilized to determine a final model; candidate variables considered for inclusion were all mutations, treatment, IPSS classification, age, and sex. The Hosmer and Lemeshow goodness-of-fit test was used to assess model fit for logistic regression models. Overall survival was calculated from the time of treatment to the time of death from any cause or was censored at the date last known alive. Unadjusted and adjusted Cox regression models were constructed for overall survival. A stepwise regression algorithm for Cox regression models was used including the same candidate variables as in the logistic regression modeling. Classification trees were also created using the Rpart package in R version 2.11.1 to classify responders based on mutational status. Cross-validation was used for tree pruning. All p-values reported are two-sided and considered significant at the 0.05 level. No adjustments were made for multiple hypothesis testing.

For `Nc1ncn([C@H]2C[C@H](O)[C@@H](CO)O2)c(=O)n1` [decitabine, 5-aza-2′-deoxycytidine], the “Non-Responders (NR/SD/PD/Died/NE) (%)” value (all patients on the treatment) was “(53) %”, the “Non-Responders (NR/SD/PD/Died/NE) N” value (all patients on the treatment) was 76 N and the “Responders (CR/PR/HI) N” value (all patients on the treatment) was 68 N. The “Responders (CR/PR/HI) (%)” value (all patients on the treatment, listed as Dec Alone) was 47%, the “Responders (CR/PR/HI) (%)” value (all patients on the treatment, listed as Decitabine Alone) was “(47) %” and the “Response (%)” value (patients with ASXL1 mutation) was 42%. For the same compound, the “Response N” value (patients with ASXL1 mutation) was 29 N, the “Response (%)” value (patients with ATRX mutation) was 25% and the “Response N” value (patients with ATRX mutation) was 2 N. For the same compound, the “Response (%)” value (patients with BCOR mutation) was 56%, the “Response N” value (patients with BCOR mutation) was 9 N and the “Response (%)” value (patients with CBL mutation) was 11%. The “Response N” value (patients with CBL mutation) was 1 N, the “Response (%)” value (patients with DNMT3A mutation) was 36% and the “Response N” value (patients with DNMT3A mutation) was 8 N. For the same compound, the “Response (%)” value (patients with ETV6 mutation) was 50%, the “Response N” value (patients with ETV6 mutation) was 3 N and the “Response (%)” value (patients with EZH2 mutation) was 44%. The “Response N” value (patients with EZH2 mutation) was 7 N, the “Response (%)” value (patients with IDH1 mutation) was 25% and the “Response N” value (patients with IDH1 mutation) was 2 N. For the same compound, the “Response (%)” value (patients with IDH2 mutation) was 17%, the “Response N” value (patients with IDH2 mutation) was 2 N and the “Response (%)” value (patients with JAK2 mutation) was 40%. The “Response N” value (patients with JAK2 mutation) was 2 N, the “Response (%)” value (patients with KDM3A mutation) was 25% and the “Response N” value (patients with KDM3A mutation) was 2 N. The “Response (%)” value (patients with KDM6B mutation) was 25%, the “Response N” value (patients with KDM6B mutation) was 2 N and the “Response (%)” value (patients with KRAS mutation) was 20%. For the same compound, the “Response N” value (patients with KRAS mutation) was 1 N, the “Response (%)” value (patients with MAML1 mutation) was 54% and the “Response N” value (patients with MAML1 mutation) was 7 N. The “Response (%)” value (patients with NF1 mutation) was 31%, the “Response N” value (patients with NF1 mutation) was 4 N and the “Response (%)” value (patients with NOTCH1 mutation) was 38%. The “Response N” value (patients with NOTCH1 mutation) was 5 N, the “Response (%)” value (patients with NOTCH2 mutation) was 58% and the “Response N” value (patients with NOTCH2 mutation) was 11 N. For the same compound, the “Response (%)” value (patients with NPM1 mutation) was 71%, the “Response N” value (patients with NPM1 mutation) was 5 N and the “Response (%)” value (patients with NRAS mutation) was 73%. The “Response N” value (patients with NRAS mutation) was 11 N, the “Response (%)” value (patients with PHF6 mutation) was 50% and the “Response N” value (patients with PHF6 mutation) was 5 N. The “Response (%)” value (patients with PRPF8 mutation) was 33%, the “Response N” value (patients with PRPF8 mutation) was 3 N and the “Response (%)” value (patients with PTPN11 mutation) was 17%. The “Response N” value (patients with PTPN11 mutation) was 1 N, the “Response (%)” value (patients with RUNX1 mutation) was 53% and the “Response N” value (patients with RUNX1 mutation) was 16 N. The “Response (%)” value (patients with SCAF11 mutation) was 25%, the “Response N” value (patients with SCAF11 mutation) was 2 N and the “Response (%)” value (patients with SF3B1 mutation) was 36%. The “Response N” value (patients with SF3B1 mutation) was 8 N, the “Response (%)” value (patients with SRSF2 mutation) was 56% and the “Response N” value (patients with SRSF2 mutation) was 14 N. The “Response (%)” value (patients with TET2 mutation) was 54%, the “Response N” value (patients with TET2 mutation) was 22 N and the “Response (%)” value (patients with TLR1 mutation) was 71%. For the same compound, the “Response N” value (patients with TLR1 mutation) was 5 N, the “Response (%)” value (patients with TP53 mutation) was 47% and the “Response N” value (patients with TP53 mutation) was 9 N. For the same compound, the “Response (%)” value (patients with U2AF1 mutation) was 50%, the “Response N” value (patients with U2AF1 mutation) was 9 N and the “Response (%)” value (patients with ZRSR2 mutation) was 44%. For the same compound, the “Response N” value (patients with ZRSR2 mutation) was 4 N.
